Reference: US11312702B2, “Substituted quinoline-8-carbonitrile derivatives having androgen receptor degradation activity and uses thereof” (ACCUTAR BIOTECHNOLOGY INC., priority 2019, dated 2022)

Assays:
Assay type in all cases: cell-based
[1] = target: T1, androgen receptor (AR) (Homo sapiens, UniProt P10275, T878A); experiment: AR degradation activity in LNCAP cells (Western blot); conditions: LNCAP cell line, 24 hours after administration; DC50 = concentration for 50% target protein degradation
T1 construct: endogenous in cells; host or cells: LNCAP
T1 sequence (P10275 1-920 T878A): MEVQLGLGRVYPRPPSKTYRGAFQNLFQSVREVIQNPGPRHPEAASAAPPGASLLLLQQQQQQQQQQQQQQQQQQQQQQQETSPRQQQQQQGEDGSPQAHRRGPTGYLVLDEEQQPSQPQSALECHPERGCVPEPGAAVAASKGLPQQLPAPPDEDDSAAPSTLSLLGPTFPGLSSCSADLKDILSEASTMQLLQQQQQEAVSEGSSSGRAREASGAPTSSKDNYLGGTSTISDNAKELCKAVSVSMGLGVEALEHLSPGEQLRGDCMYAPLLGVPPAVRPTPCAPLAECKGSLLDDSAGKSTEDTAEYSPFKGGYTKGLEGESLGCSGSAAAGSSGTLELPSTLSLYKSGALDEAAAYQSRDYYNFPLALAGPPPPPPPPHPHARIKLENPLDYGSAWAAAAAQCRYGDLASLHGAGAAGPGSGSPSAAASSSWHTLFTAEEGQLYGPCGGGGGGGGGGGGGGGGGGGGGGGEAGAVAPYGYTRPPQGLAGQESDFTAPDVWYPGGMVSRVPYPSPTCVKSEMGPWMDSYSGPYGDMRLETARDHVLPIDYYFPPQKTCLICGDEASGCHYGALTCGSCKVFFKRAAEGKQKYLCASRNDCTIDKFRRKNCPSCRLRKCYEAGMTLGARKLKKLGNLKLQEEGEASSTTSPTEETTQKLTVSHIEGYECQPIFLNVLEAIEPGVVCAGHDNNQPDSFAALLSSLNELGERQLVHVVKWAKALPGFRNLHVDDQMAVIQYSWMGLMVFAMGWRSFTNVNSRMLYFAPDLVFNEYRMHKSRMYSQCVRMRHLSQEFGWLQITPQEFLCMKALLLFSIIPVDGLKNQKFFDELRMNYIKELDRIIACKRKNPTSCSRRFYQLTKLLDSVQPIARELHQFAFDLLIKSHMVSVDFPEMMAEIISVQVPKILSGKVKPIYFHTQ
Procedure: LNCAP, VCAP and 22Rv1 cells were plated in 24-well plates at 1.5×10E5 cells/well in the RPMI growth medium containing 10% FBS and 1% Penicillin Streptomycin, and then incubated at 37° C. overnight. The following day, the test compound was administered to the cells by using 1000× compound stock solution prepared in DMSO at various concentrations. After administration of the compound, the cells were then incubated at 37° C. for 24 hours. Upon completion, the cells were washed with PBS and protein was collected in Laemmli sample buffer (1×; VWR International). Proteins in cell lysate were separated by SDS-PAGE and transferred to Odyssey nitrocellulose membranes (Licor) with iblot® dry blotting transfer system (ThermoFisher). Nonspecific binding was blocked by incubating membranes with Intercept Blocking Buffer (Licor) for 1 hour at room temperature with gentle shaking. The membranes were then incubated overnight at 4° C. with Primary antibodies rabbit anti-AR (1:1,000, Cell Signaling, 5153) and mouse anti-GAPDH (1:5,000, Santa Cruz Biotechnology, sc-47724) diluted in Intercept Blocking Buffer containing 0.1% Tween 20. After washing 3 times with TBS-T, the membranes were incubated with IRDye® […] goat anti-mouse IgG (1:20,000, Licor) or IRDye®8000W goat anti-rabbit IgG (1:20,000, Licor) for 1 hour. After TBS-T washes, membranes were rinsed in TBS and scanned on Odyssey® CLx Imaging System (Licor). The bands were quantified using Image Studio™ Software (Licor).
(§1) Table 4 summarizes the androgen receptor (AR) degradative activity and cell growth inhibition of exemplary compounds in (a) LNCAP, VCAP, and 22Rv1 cell lines 24 hours after administration of the compound; (b) RAMOS cell line 3 days after administration of the compound; and (c) VCAP cell line 6 days after administration of the compound. DC50: compound concentration needed for 50% target protein degradation.

[2] = system: VCAP cells; experiment: Cell growth inhibition for VCAP cells (CellTiter-Glo); conditions: Homo sapiens, 144 h; VCAP cell line, 6 days after administration, 0.1 nM R1881, charcoal-stripped FBS
Procedure: VCAP cells (ATCC) were seeded in 96-well plates at 3000 cell/well in 80 μl of DMEM growth medium containing 10% charcoal-stripped FBS (CSS) and 1% Penicillin/Streptomycin. Cells were incubated at 37° C. overnight. The following day, the test compound was administered to the cells by using 10× compound stock solution prepared in growth medium at various concentrations. Four hours later, 0.1 nM R1881 (Sigma) was administered to the cells by using 10× compound stock solution prepared in growth medium. 0.1% DMSO with or without 0.1 nM R1881 was administered as control. Cells were then incubated at 37° C. for 6 days. Before CelTiter-Glo assay, the plates were equilibrated at room temperature for approximately 10 minutes. 100 ul of CellTiter-Glo® Reagent (Promega) was added to each well. The plates were then incubated at room temperature for 10 minutes and luminescence was recorded by EnSpire plate reader (PerkinElmer).
as §1

[3] = system: RAMOS cells; experiment: Cell growth inhibition for Ramos cells (CellTiter-Glo); conditions: Homo sapiens, 72 h; RAMOS cell line, 3 days after administration
Procedure: RAMOS cells (ATCC) were seeded in 96-well plates at 16,000 cell/well in 90 μl of RPMI growth medium containing 10% Heat-Inactivated Fetal Bovine Serum and 1% Penicillin/Streptomycin. The test compound was administered to the cells by using 10× compound stock solution prepared in growth medium at various concentrations. After administration of the compound, cells were then incubated at 37° C. for 3 days. Before CellTiter-Glo assay, the plates were equilibrated at room temperature for approximately 10 minutes. 100 ul of CellTiter-Glo® Reagent (Promega) was added to each well. The plates were then incubated at room temperature for 10 minutes and luminescence was recorded by EnSpire plate reader (PerkinElmer).
as §1

| SMILES | DC50 [1] | GI50 [2] | GI50 [3] |
| --- | --- | --- | --- |
| CN(CC1CCN(c2ccc(C(=O)NC3C(C)(C)C(Oc4ccc(C#N)c5ncccc45)C3(C)C)cn2)CC1)C1CC(Oc2ccc3c(c2)C(=O)N(C2CCC(=O)NC2=O)C3=O)C1 (stereo not drawn) [Compound 2-9, N-((1,3-trans)-3-((8-cyanoquinolin-5-yl)oxy)-2,2,4,4-tetramethylcyclobutyl)-6-(4-((((1r,3r)-3-((2-(2,6-dioxopiperidin-3-yl)-1,3-dioxoisoindolin-5-yl)oxy)cyclobutyl)(methyl)amino)methyl)piperidin-1-yl)nicotinamide] | 0.2 nM | – | – |
| CC(C)N(CC1CCN(c2ccc(C(=O)NC3C(C)(C)C(Oc4ccc(C#N)c5ncccc45)C3(C)C)cn2)CC1)C1CC(Oc2ccc3c(c2)C(=O)N(C2CCC(=O)NC2=O)C3=O)C1 (stereo not drawn) [Compound 2-11, N-((1,3-trans)-3-((8-cyanoquinolin-5-yl)oxy)-2,2,4,4-tetramethylcyclobutyl)-6-(4-((((1r,3r)-3-((2-(2,6-dioxopiperidin-3-yl)-1,3-dioxoisoindolin-5-yl)oxy)cyclobutyl)(isopropyl)amino)methyl)piperidin-1-yl)nicotinamide] | 2.8 nM | – | – |
| CC1(C)[C@H](NC(=O)c2cnc(N3CCC(CN4CCN(c5ccc6c(c5)CN([C@H]5CCC(=O)NC5=O)C6=O)CC4)CC3)nc2)C(C)(C)[C@H]1Oc1ccc(C#N)c2ncccc12 [Compound 2-30] | 0.2 nM | 11.5 nM | > 3000 nM |
| CC1(C)C(NC(=O)c2ccc(N3CCC(CN4CCN(c5ccc6c(c5)CN([C@H]5CCC(=O)NC5=O)C6=O)CC4)CC3)nn2)C(C)(C)C1Oc1ccc(C#N)c2ncccc12 (stereo partly drawn) [Compound 2-31, N-((1,3-trans)-3-((8-cyanoquinolin-5-yl)oxy)-2,2,4,4-tetramethylcyclobutyl)-6-(4-((4-(2-((S)-2,6-dioxopiperidin-3-yl)-1-oxoisoindolin-5-yl)piperazin-1-yl)methyl)piperidin-1-yl)pyridazine-3-carboxamide] | 0.6 nM | 9.2 nM | > 3000 nM |
| CC1(C)C(NC(=O)c2ccc(N3CCC(CN4CCN(c5cc6c(cc5F)C(=O)N(C5CCC(=O)NC5=O)C6=O)CC4)CC3)nn2)C(C)(C)C1Oc1ccc(C#N)c2ncccc12 (stereo not drawn) [Compound 2-35, N-((1,3-trans)-3-((8-cyanoquinolin-5-yl)oxy)-2,2,4,4-tetramethylcyclobutyl)-6-(4-((4-(2-(2,6-dioxopiperidin-3-yl)-6-fluoro-1,3-dioxoisoindolin-5-yl)piperazin-1-yl)methyl)piperidin-1-yl)pyridazine-3-carboxamide] | 0.4 nM | – | – |
| CC1(C)C(NC(=O)c2ccc(N3CCC(CN4CCN(c5cc6c(cc5F)C(=O)N(C5CCC(=O)NC5=O)C6=O)CC4)CC3)nc2)C(C)(C)C1Oc1ccc(C#N)c2ncccc12 (stereo not drawn) [Compound 2-36, N-((1,3-trans)-3-((8-cyanoquinolin-5-yl)oxy)-2,2,4,4-tetramethylcyclobutyl)-6-(4-((4-(2-(2,6-dioxopiperidin-3-yl)-6-fluoro-1,3-dioxoisoindolin-5-yl)piperazin-1-yl)methyl)piperidin-1-yl)nicotinamide] | 1.4 nM | – | – |
| CC1(C)C(NC(=O)c2ccc(N3CCC(CN4CCN(c5cc6c(cc5F)C(=O)N(C5CCC(=O)NC5=O)C6=O)CC4)CC3)cc2)C(C)(C)C1Oc1ccc(C#N)c2ncccc12 (stereo not drawn) [Compound 2-47, N-((1,3-trans)-3-((8-cyanoquinolin-5-yl)oxy)-2,2,4,4-tetramethylcyclobutyl)-4-(4-((4-(2-(2,6-dioxopiperidin-3-yl)-6-fluoro-1,3-dioxoisoindolin-5-yl)piperazin-1-yl)methyl)piperidin-1-yl)benzamide] | 0.8 nM | – | – |
| CC1(C)C(NC(=O)c2ccc(N3CCC(CN4CCN(c5cc6c(cc5F)C(=O)N(C5CCC(=O)NC5=O)C6=O)CC4)CC3)c(F)c2)C(C)(C)C1Oc1ccc(C#N)c2ncccc12 (stereo not drawn) [Compound 2-48, N-((1,3-trans))-3-((8-cyanoquinolin-5-yl)oxy)-2,2,4,4-tetramethylcyclobutyl)-4-(4-((4-(2-(2,6-dioxopiperidin-3-yl)-6-fluoro-1,3-dioxoisoindolin-5-yl)piperazin-1-yl)methyl)piperidin-1-yl)-3-fluorobenzamide] | 3.8 nM | – | – |
| CC1(C)C(NC(=O)c2cnc(N3CCC(CN4CCN(c5cc6c(cc5F)C(=O)N(C5CCC(=O)NC5=O)C6=O)CC4)CC3)nc2)C(C)(C)C1Oc1ccc(C#N)c2ncccc12 (stereo not drawn) [Compound 2-50, N-((1,3-trans)-3-((8-cyanoquinolin-5-yl)oxy)-2,2,4,4-tetramethylcyclobutyl)-2-(4-((4-(2-(2,6-dioxopiperidin-3-yl)-6-fluoro-1,3-dioxoisoindolin-5-yl)piperazin-1-yl)methyl)piperidin-1-yl)pyrimidine-5-carboxamide] | 0.6 nM | – | – |
| CC1(C)[C@H](NC(=O)c2ccc(N3CCC(CN4CCN(c5ccc6c(c5)CN(C5CCC(=O)NC5=O)C6=O)CC4)CC3)c(F)c2)C(C)(C)[C@H]1Oc1ccc(C#N)c2ncccc12 (stereo partly shown) [Compound 2-51, N-((1r,3r)-3-((8-cyanoquinolin-5-yl)oxy)-2,2,4,4-tetramethylcyclobutyl)-4-(4-((4-(2-(2,6-dioxopiperidin-3-yl)-1-oxoisoindolin-5-yl)piperazin-1-yl)methyl)piperidin-1-yl)-3-fluorobenzamide] | 0.5 nM | 11 nM | > 3000 nM |
| CC1(C)C(NC(=O)c2cnc(N3CCC(CN4CCN(c5cc6c(cc5F)C(=O)N(C5CCC(=O)NC5=O)C6=O)CC4)CC3)c(F)c2)C(C)(C)C1Oc1ccc(C#N)c2ncccc12 (stereo not drawn) [Compound 2-52, N-((1,3-trans)-3-((8-cyanoquinolin-5-yl)oxy)-2,2,4,4-tetramethylcyclobutyl)-6-(4-((4-(2-(2,6-dioxopiperidin-3-yl)-6-fluoro-1,3-dioxoisoindolin-5-yl)piperazin-1-yl)methyl)piperidin-1-yl)-5-fluoronicotinamide] | 1.3 nM | – | – |
| CC1(C)[C@H](NC(=O)c2ccc(N3CCC(CN4CCN(c5cc6c(cc5F)C(=O)N([C@H]5CCC(=O)NC5=O)C6)CC4)CC3)c(F)c2)C(C)(C)[C@H]1Oc1ccc(C#N)c2ncccc12 [Compound 2-53, N-((1,3-trans)-3-((8-cyanoquinolin-5-yl)oxy)-2,2,4,4-tetramethylcyclobutyl)-4-(4-((4-(2-((S)-2,6-dioxopiperidin-3-yl)-6-fluoro-1-oxoisoindolin-5-yl)piperazin-1-yl)methyl)piperidin-1-yl)-3-fluorobenzamide] | 0.4 nM | 11.9 nM | – |
